A word on the pIC50: it is the IC50 on a negative log10 scale, so that one unit is a factor of ten. By IC50 is commonly meant the midpoint of a concentration-inhibition curve.

Molecules are shown by their SMILES. pIC50: −log10 of the molar value. Like-named read-outs stand apart in the source and are kept apart here.

In one experiment the test system is A2780 cells. In words: Deoxy-glucose uptake assay in A2780 cells (14C 2-deoxy-D-glucose transport). Format: cell-based. Particulars: Homo sapiens; for pIC50: 20 min, inhibition of 14C 2-deoxy-D-glucose transport into A2780 cells, 20 min compound incubation, read-out: IC50. In a few lines:
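Radiolabelled 2-deoxy-D-glucose transport over 20 min was scintillation-counted in A2780 cells, grown 48 h, after 20 min compound exposure in KRB. Untreated cells gave the 100% reference, with Cytochalasin B defining background. IC50 values were regressed from triplicate means across 7 or 14 concentrations.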

In experiment [1] the test system is A2780 Human Carcinoma Cells. The experiment is described as follows: Glucose displacement assay (ATP measurement, CellTiter-Glo). Format: cell-based. Particulars: ATP measurement in A2780 cells, 0.5 μM rotenone. The method, then: 2. Glucose Displacement Assay (ATP Measurement)
30,000 A2780 Human Carcinoma Cells are seeded per well in a Greiner 96-well plate. Cells are expanded and cultured in RPMI 1640 medium+GlutaMAX® with 10% FCS and 11 mM glucose, at 37° C. with 5% CO2. After 44 h, culture media is changed and washed once with PBS to starvation media consisting of RPMI 1640 medium with 1% FCS without glucose for 2 hours. Cells are then washed with KRB buffer, followed by incubation for 20 min at 37° C. of the treatment mix consisting of 60 μL KRB buffer/well and 10 μL of compound or DMSO 10×. 10 μl of rotenone is added to the mix to a final concentration of 0.5 μM. Cell plates are left for 2 min at room temperature. 20 μL of different glucose concentrations are added to the mix—typically 0.1 to 10 mM range—.
Cells are incubated for another 15 min at 37° C., before measuring ATP with the CellTiter-Glo® Assay, under manufacturer's guidance, but without the equilibration step at room temperature for 30 min. In brief, 100 μl of Cell-Titer-Glo® Reagent is added to the wells containing already 100 μl of the previous reaction mix. Plates are mixed for 2 min at 800 rpm, followed by incubation at room temperature for 10 min to stabilize the luminescent signal. Luminescence is then recorded with the Tekan Ultra Evolution reader.
On the technique in general: In ATP-based viability assays light output follows the ATP content of the culture.

The mark [2] stands for this setting: 1 mM glucose, read-out: IC50 [μM] at 1 mM glucose.
Where [3] appears, read: 10 mM glucose, read-out: IC50 [μM] at 10 mM glucose.

On to `COc1cc(C(=O)OC[C@H]2O[C@H](OC)[C@H](O)[C@@H](O)[C@@H]2O)cc(Cl)c1OCc1cccc(NC(=O)OC(C)(C)C)c1` [Example 20], for which, in the experiment on A2780 cells, the pIC50 is 4.54. Further, the IC50 stood at 12.7 µM in experiment [1] (setting [2]) and 33.9 µM in experiment [1] (setting [3]).
Taken in the same sequence, the figures for `CO[C@H]1O[C@H](CO)[C@@H](O)[C@H](O)[C@H]1OC(=O)c1cc(Cl)c(OCc2nc3ccccc3n2Cc2ccccc2Cl)c(Cl)c1` [Example 116] were 5.66, 16.7 µM and 104 µM.
Consider `C#CCCCn1c(COc2c(Cl)cc(C(=O)N[C@H]3[C@@H](OC)O[C@H](CO)[C@@H](O)[C@@H]3O)c(C)c2Cl)nc2ccccc21` [Example 201], for which the pIC50 in the experiment with A2780 cells was 5.35. In addition, the IC50 in experiment [1] (setting [2]) came to 0.393 µM; in experiment [1] (setting [3]), 2.4 µM.
Take `C#CCCC(=O)Nc1cccc(COc2c(Cl)cc(C(=O)O[C@H]3[C@@H](OC)O[C@H](CO)[C@@H](O)[C@@H]3O)c(C)c2Cl)c1` [Example 206]: the pIC50 in the experiment with A2780 cells was 5.08. The IC50 is 1.7 µM in experiment [1] (setting [2]) and more than 10 µM in experiment [1] (setting [3]).
Regarding `C#CCCCn1cnc(COc2c(Cl)cc(C(=O)O[C@H]3[C@@H](OC)O[C@H](CO)[C@@H](O)[C@@H]3O)cc2OC)c1` [Example 208], the pIC50 with A2780 cells is 4.90. In addition, the IC50 is 21.4 µM in experiment [1] (setting [2]) and more than 100 µM in experiment [1] (setting [3]).
With `COc1cc(OCc2ccccc2)c(Cl)cc1C(=O)N[C@H]1[C@@H](OC)O[C@H](CO)[C@@H](O)[C@@H]1O` [Example 232], the pIC50 in the experiment on A2780 cells was 5.14. In addition, the figures for the IC50 in experiment [1] (setting [2]) and in experiment [1] (setting [3]) were 5.6 µM and more than 33 µM, respectively.
Consider `COc1cc(OCc2ccccc2)c(Cl)cc1C(=O)O[C@H]1[C@@H](OC)O[C@H](CO)[C@@H](O)[C@@H]1O` [Example 233], for which the negative-log IC50 (pIC50) in the experiment with A2780 cells was 5.96. For the same compound, the IC50 in experiment [1] (setting [2]) came out at 1.67 µM; in experiment [1] (setting [3]), 21.1 µM.
On to `C#CCCCn1c(COc2c(Cl)cc(C(=O)O[C@H]3[C@@H](OC)O[C@H](CO)[C@@H](O)[C@@H]3O)c(C)c2Cl)nc2ccc(OC)cc21` [Example 291], for which the pIC50 in the experiment on A2780 cells was 7.00. For the same compound, the IC50 in experiment [1] (setting [2]) was found to be 0.12 µM; in experiment [1] (setting [3]) it was 0.29 µM.
For the compound `C#CCCCn1c(COc2c(Cl)cc(C(=O)O[C@H]3[C@@H](OC)O[C@H](CO)[C@@H](O)[C@@H]3O)c(C)c2Cl)nc2cc(OC)ccc21` [Example 292], in the experiment with A2780 cells, the pIC50 is 7.00. In addition, the IC50 stood at 0.13 µM in experiment [1] (setting [2]) and 1.12 µM in experiment [1] (setting [3]).
For the compound `C#CCCCn1c(COc2cc(OC)c(C(=O)O[C@H]3[C@@H](OC)O[C@H](CO)[C@@H](O)[C@@H]3O)cc2Cl)nc2ccccc21` [Example 294], the pIC50 in the experiment on A2780 cells was 7.00. The IC50 was found to be 0.16 µM in experiment [1] (setting [2]) and 1.28 µM in experiment [1] (setting [3]).
For `COC(=O)[C@@H](N)CCC(=O)NCc1cccc(COc2c(Cl)cc(C(=O)O[C@H]3[C@@H](OC)O[C@H](CO)[C@@H](O)[C@@H]3O)c(C)c2Cl)c1` [Example 308], in the experiment with A2780 cells, the pIC50 was 4.45. Further, the IC50 was 8.85 µM in experiment [1] (setting [2]) and more than 33 µM in experiment [1] (setting [3]).
`CCOC(=O)CCCCCn1cc(CCCn2c(COc3c(Cl)cc(C(=O)O[C@H]4[C@@H](OC)O[C@H](CO)[C@@H](O)[C@@H]4O)c(C)c3Cl)nc3ccccc32)nn1` [Example 309]: in the experiment on A2780 cells, the pIC50 was 6.52. In addition, the results for the IC50 in experiment [1] (setting [2]) and in experiment [1] (setting [3]) were 0.17 µM and 0.71 µM, respectively.
On to `CCOC(=O)CCCn1cc(CCCn2c(COc3c(Cl)cc(C(=O)O[C@H]4[C@@H](OC)O[C@H](CO)[C@@H](O)[C@@H]4O)c(C)c3Cl)nc3ccccc32)nn1` [Example 310], for which the pIC50 with A2780 cells was 6.40. The IC50 in experiment [1] (setting [2]) was 0.17 µM; in experiment [1] (setting [3]), 0.89 µM.
`CO[C@H]1O[C@H](CO)[C@@H](O)[C@H](O)[C@H]1OC(=O)c1cc(Cl)c(OCc2nc3ccccc3n2CCCc2cn(CCOCCOCC(=O)OC(C)(C)C)nn2)c(Cl)c1C` [Example 311]: in the experiment on A2780 cells, the pIC50 is 6.40. Besides, the values for the IC50 in experiment [1] (setting [2]) and in experiment [1] (setting [3]) were 0.12 µM and 0.7 µM, respectively.
In the case of `COc1cc(C(=O)O[C@H]2[C@@H](OC)O[C@H](CO)[C@@H](O)[C@@H]2O)cc(Cl)c1OCc1cccc(NC(=O)CCc2cc(C)nn2C)c1` [Example 313], the IC50 in experiment [1] (setting [2]) stood at 3.2 µM; in experiment [1] (setting [3]), 18.8 µM.
For `C#CCCCn1c(COc2cc(Cl)cc(C(=O)O[C@H]3[C@@H](OC)O[C@H](CO)[C@@H](O)[C@@H]3O)c2)nc2ccccc21` [Example 314], in the experiment with A2780 cells, the pIC50 was 5.01. The IC50 in experiment [1] (setting [2]) amounted to 2.81 µM; in experiment [1] (setting [3]), 28.5 µM.
Turning to `COC(=O)/C=C/c1ccc(COc2c(Cl)cc(C(=O)N[C@H]3[C@@H](OC)O[C@H](CO)[C@@H](O)[C@@H]3O)c(C)c2Cl)cc1` [Example 315], the pIC50 in the experiment on A2780 cells is 4.89. In addition, the values for the IC50 in experiment [1] (setting [2]) and in experiment [1] (setting [3]) were 2.3 µM and more than 33 µM, respectively.
For `CO[C@H]1O[C@H](CO)[C@@H](O)[C@H](O)[C@H]1NC(=O)c1cc(Cl)c(OCc2ccc(OCC(=O)OC(C)(C)C)cc2)c(Cl)c1C` [Example 316] the same measures were 5.80, 1.52 µM and more than 33 µM.
For `CO[C@H]1O[C@H](CO)[C@@H](O)[C@H](O)[C@H]1OC(=O)c1cc(Cl)c(OCc2ccc(OCC(=O)OC(C)(C)C)cc2)c(Cl)c1C` [Example 319] the same measures were 5.13, 3 µM and 8.03 µM.
On to `C#CCCCCCCn1c(COc2c(Cl)cc(C(=O)O[C@H]3[C@@H](OC)O[C@H](CO)[C@@H](O)[C@@H]3O)c(C)c2Cl)nc2ccccc21` [Example 321], for which the pIC50 in the experiment with A2780 cells is 6.70. Besides, the values for the IC50 in experiment [1] (setting [2]) and in experiment [1] (setting [3]) were 0.56 µM and 1.2 µM, respectively.
With `COC(=O)[C@H](CCCCNC(=O)CCCCCn1c(COc2c(Cl)cc(C(=O)N[C@H]3[C@@H](OC)O[C@H](CO)[C@@H](O)[C@@H]3O)c(C)c2Cl)nc2ccccc21)NC(=O)OC(C)(C)C` [Example 322], in the experiment on A2780 cells, the pIC50 is 4.70. For the same compound, the results for the IC50 in experiment [1] (setting [2]) and in experiment [1] (setting [3]) were 1.42 µM and 7.06 µM, respectively.
With `CO[C@H]1O[C@H](CO)[C@@H](O)[C@H](O)[C@H]1NC(=O)c1cc(Cl)c(OCc2noc3ccc(C)cc23)c(Cl)c1C` [Example 324], the pIC50 in the experiment with A2780 cells is 5.68. The IC50 in experiment [1] (setting [2]) is 0.94 µM; in experiment [1] (setting [3]) it was 7.98 µM.
Turning to `CO[C@H]1O[C@H](CO)[C@@H](O)[C@H](O)[C@H]1OC(=O)c1cc(Cl)c(OCc2noc3ccc(C)cc23)c(Cl)c1C` [Example 325], the pIC50 in the experiment with A2780 cells is 6.52. For the same compound, the IC50 was 1.2 µM in experiment [1] (setting [2]) and 7.19 µM in experiment [1] (setting [3]).
`COc1cc(OCc2sc(C)nc2C(F)(F)F)c(Cl)cc1C(=O)O[C@H]1[C@@H](OC)O[C@H](CO)[C@@H](O)[C@@H]1O` [Example 478]: the pIC50 in the experiment with A2780 cells was 6.62.
Consider `COc1cc(OCc2ccc(-c3nccs3)cc2)c(Cl)cc1C(=O)O[C@H]1[C@@H](OC)O[C@H](CO)[C@@H](O)[C@@H]1O` [Example 479], for which the pIC50 in the experiment on A2780 cells was more than 7.00.
For the compound `COc1cccc(COc2cc(OC)c(C(=O)O[C@H]3[C@@H](OC)O[C@H](CO)[C@@H](O)[C@@H]3O)cc2Cl)n1` [Example 480], in the experiment on A2780 cells, the pIC50 was 5.34.
As to `COc1cc(OCc2nc3ccccc3n2Cc2ccccc2)c(Cl)cc1C(=O)O[C@H]1[C@@H](OC)O[C@H](CO)[C@@H](O)[C@@H]1O` [Example 481], the pIC50 with A2780 cells was 6.22.
Regarding `COc1cc(OCc2cnc(OC)c(NCC(=O)O)c2)c(Cl)cc1C(=O)N[C@H]1[C@@H](OC)O[C@H](CO)[C@@H](O)[C@@H]1O` [Example 483], in the experiment on A2780 cells, the pIC50 was 4.44.
For the compound `O=C(NC[C@@H]1O[C@H](CO)[C@@H](O)[C@H](O)[C@H]1O)c1ccc(COc2ccccc2)o1` [Example 490], the inhibition at 100 µM in the experiment on A2780 cells (inhibition of 14C 2-deoxy-D-glucose transport into A2780 cells at 100 μM, read-out: % inh. at 100 μM) is 20%.
